In one data set the target is BuChE from equine serum (Equus caballus, UniProt P81908). The data set is described as follows: biochemical. The conditions noted are these: for Selectivity for BuChE: IC50(AChE)/IC50(BuChE); for IC50: means ± SD of three independent experiments, read-out: EqBuChE IC50 ± SD.
For the next data set, the target named is AChE from electric eel (Electrophorus electricus, UniProt O42275). As to the kind of experiment: biochemical. The conditions noted are these: for Selectivity for AChE: IC50 (BuChE)/IC50(AChE); for IC50: means ± SD of three independent experiments, read-out: EeAChE IC50 ± SD.
AChE from electric eel, sequence (O42275 24-633): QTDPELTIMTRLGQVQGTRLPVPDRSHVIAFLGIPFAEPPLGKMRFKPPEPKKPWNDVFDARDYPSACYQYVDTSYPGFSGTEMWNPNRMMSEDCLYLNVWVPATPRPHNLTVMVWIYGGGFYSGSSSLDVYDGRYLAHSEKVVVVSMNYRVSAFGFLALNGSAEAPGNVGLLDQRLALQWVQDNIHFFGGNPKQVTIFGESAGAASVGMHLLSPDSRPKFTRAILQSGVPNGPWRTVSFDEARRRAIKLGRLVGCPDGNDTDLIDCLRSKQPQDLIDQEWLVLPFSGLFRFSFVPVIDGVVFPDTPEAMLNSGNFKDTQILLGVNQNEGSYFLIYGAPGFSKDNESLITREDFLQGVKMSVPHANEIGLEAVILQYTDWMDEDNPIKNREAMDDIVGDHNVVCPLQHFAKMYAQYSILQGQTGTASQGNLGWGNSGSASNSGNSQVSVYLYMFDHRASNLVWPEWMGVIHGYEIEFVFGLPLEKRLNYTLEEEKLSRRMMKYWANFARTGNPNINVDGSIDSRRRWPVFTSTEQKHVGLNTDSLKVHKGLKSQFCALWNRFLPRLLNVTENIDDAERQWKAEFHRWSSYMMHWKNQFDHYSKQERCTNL
The conditions of data set [1]: Experimental Properties; cited from earlier work.
A further data set in a line: in vitro. In kind it is cell-based. The conditions noted are these: human. Here is the method:
(§1) Human hepatic stellate cells (HSCs, Sciencell) were cultured in the Stellate Cell Medium (Sciencell) with 1% Stellate Cell Growth Supplement, 2% fetal bovine serum (FBS), and 1% penicillin/streptomycin solution (Sciencell). Cells were kept in the incubator (37 °C, 5% CO2). At the beginning of the experiment, cells were seeded in the 96-well plates at a density of 5 × 10^3 cells per well and incubated in the incubator for 24 h. After the incubation period, medium was removed and HSCs were exposed to 100 µL of the compound solutions over a range of concentrations (10–0.1 µM) or nothing but culture medium (blank control). Cells were further incubated for 24 h. At the end, medium was removed, cells were washed with PBS, and 50 µL of the MTT solution (0.75 mg/mL) was added to the cells. Plates were kept in the dark for 2 h at 37 °C. Finally, the MTT solution was removed and 100 µL of DMSO was added to each well. Plates with DMSO were kept at room temperature for 10 min. After this time, 5 µL of Sorensen Buffer was added to each well. Plates were swayed and the absorbance was measured at a wavelength of 570 nm by a microplate reader (Synergy H1, BioTek). The cell viability was expressed as a percentage of the control values (blank control).

Data set [2] concerns Human hepatic stellate cells (HSCs). As to the kind of experiment: in vitro. Format: cell-based. The conditions noted are these: HSCs, 24 h. As for the experimental part:
as §1

For data set [3] the following is noted: Experimental Properties; cited from earlier work. The source holds these as a separate data set.
Data set [4] has as its system SH-SY5Y cells. The data set is described as follows: Neuroprotection against oxidative stress induced by H2O2 (MTT). Format: cell-based, human. The settings on record: H2O2 100 µM.
The subject of data set [5] is SH-SY5Y cells. As to the kind of experiment: Neuroprotection against rotenone/oligomycin A, pre-incubation (MTT). Format: cell-based, human. The conditions noted are these: R/O mixture, 0.001 µM.
The test system of data set [6] is SH-SY5Y cells. As to the kind of experiment: Neuroprotection against rotenone/oligomycin A, co-incubation (MTT). In kind it is cell-based, human. The settings on record: R/O mixture.
For the next data set, the target named is T1, hyaluronidase (Bos taurus, UniProt Q2YDK3).
T1 sequence (Q2YDK3 36-553): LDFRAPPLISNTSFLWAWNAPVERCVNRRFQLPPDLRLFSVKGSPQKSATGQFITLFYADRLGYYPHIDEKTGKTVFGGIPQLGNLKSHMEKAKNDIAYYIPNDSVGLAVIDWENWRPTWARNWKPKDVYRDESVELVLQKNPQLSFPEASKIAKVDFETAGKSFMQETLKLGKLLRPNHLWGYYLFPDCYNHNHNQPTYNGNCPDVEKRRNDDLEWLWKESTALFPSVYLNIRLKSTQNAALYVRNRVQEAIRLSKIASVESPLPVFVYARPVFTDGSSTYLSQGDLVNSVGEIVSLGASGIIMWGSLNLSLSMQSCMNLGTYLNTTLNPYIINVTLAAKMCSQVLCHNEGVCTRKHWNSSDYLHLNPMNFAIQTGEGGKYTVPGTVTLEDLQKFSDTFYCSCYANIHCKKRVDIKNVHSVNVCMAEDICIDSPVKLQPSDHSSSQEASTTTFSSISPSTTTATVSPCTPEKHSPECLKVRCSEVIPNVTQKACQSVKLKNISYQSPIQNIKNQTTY
The data set is described as follows: Hyaluronidase (HYAL) inhibition test (turbidimetry). In kind it is biochemical. As for the experimental part:
The hyaluronidase inhibition assay was set by turbidimetry according to USP XXII-NF XVII, modified by Piwowarski, to the 96-wells plates test. Tested compound solutions were freshly prepared before the assay. The protocol started with the addition of 20 µL of the tested compound in monosodium phosphate buffer and 40 µL of hyaluronidase solution (22.5 U/mL, Sigma Aldrich) to each well. The plate was kept in the dark (10 min, 37 °C). In the next step, 40 µL of hyaluronic acid solution (0.03%, Sigma Aldrich) in monosodium phosphate buffer was added to the wells and the plate was incubated again (45 min, 37 °C). Finally, 300 µL of bovine serum albumin (0.1%, Serva) in sodium acetate buffer was added to the wells and the mixture was kept at room temperature for 10 min. The assay was carried out in triplicate. Changes in turbidity were measured by a microplate reader (BioTek, Winooski, VT, USA) at 600 nm. Heparin (WZF, Polfa, Warszawa, Poland) was the positive control. The inhibitory activity of the tested compound was calculated from the Equation (1):(1) % inhibition=100x1−AHA−AAN/AHA−AHYAL where AHA is the absorbance of solution without the enzyme (positive control), AHYAL is the absorbance of solution without the tested compound (negative control), and AAN is the absorbance of solution with the tested compound.

“And” between values parts separate entries of the source, which are not always exact repeats. Identical values can stand only once.

Consider twelve compounds from paper PMC7312527 (International Journal of Molecular Sciences, 2020).

Broadly, the IC50 is the midpoint of a concentration-inhibition curve. Broadly, the pKa is the negative logarithm of the acid dissociation constant. The term viability denotes a read-out of living cells in per cent, often relative to untreated cells. The logP is a log measure of how a compound divides between an organic and an aqueous phase.

BuChE from equine serum, sequence (P81908 whole entry): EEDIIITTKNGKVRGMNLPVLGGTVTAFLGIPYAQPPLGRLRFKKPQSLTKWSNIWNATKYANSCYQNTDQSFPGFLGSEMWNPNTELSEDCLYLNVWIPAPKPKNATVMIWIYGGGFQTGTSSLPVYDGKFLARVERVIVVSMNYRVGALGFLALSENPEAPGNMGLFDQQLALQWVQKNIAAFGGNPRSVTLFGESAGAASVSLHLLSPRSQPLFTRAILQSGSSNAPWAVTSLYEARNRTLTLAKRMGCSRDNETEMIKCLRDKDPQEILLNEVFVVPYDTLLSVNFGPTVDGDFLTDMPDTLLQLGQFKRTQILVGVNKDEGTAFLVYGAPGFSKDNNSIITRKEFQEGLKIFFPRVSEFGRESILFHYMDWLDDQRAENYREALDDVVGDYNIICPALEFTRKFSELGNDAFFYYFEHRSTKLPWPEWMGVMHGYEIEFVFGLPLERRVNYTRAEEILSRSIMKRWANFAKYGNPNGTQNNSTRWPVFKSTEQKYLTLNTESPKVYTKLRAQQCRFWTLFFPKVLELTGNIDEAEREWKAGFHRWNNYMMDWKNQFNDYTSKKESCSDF

Take `Cl.O=C(NCCNc1c2c(nc3ccccc13)CCCC2)c1cc(Cl)cc(Cl)c1` [Compound 3a]: on BuChE from equine serum, the “Selectivity for BuChE” value is given as 4.935 and the IC50 was determined as 140 ± 12 nM. On AChE from electric eel, the “Selectivity for AChE” value came to 0.203 and the IC50 came out at 690 ± 108 nM.
For `O=C(NCCCNc1c2c(nc3ccccc13)CCCC2)c1cc(Cl)cc(Cl)c1` [Compound 3b] the same measures were 5.756, 24 ± 1 nM, 0.174 and 139 ± 5 nM.
Take `O=C(NCCCCCNc1c2c(nc3ccccc13)CCCC2)c1cc(Cl)cc(Cl)c1` [Compound 3d]: the IC50 on BuChE from equine serum is > 20000 nM; at AChE from electric eel, > 12000 nM and 12400 nM.
In the case of `O=C(NCCCCCCNc1c2c(nc3ccccc13)CCCC2)c1cc(Cl)cc(Cl)c1` [Compound 3e], the IC50 at BuChE from equine serum and on AChE from electric eel was > 20000 nM in each case.
For the compound `O=C(NCCCCCCCNc1c2c(nc3ccccc13)CCCC2)c1cc(Cl)cc(Cl)c1` [Compound 3f], on BuChE from equine serum, the “Selectivity for BuChE” value stood at 3.457 and the concentration for half-maximal inhibition (IC50) worked out at 33 ± 6 nM. Also, on AChE from electric eel, the “Selectivity for AChE” value stood at 0.289 and the IC50 came to 115 ± 12 nM.
With `O=C(NCCCCCCCCNc1c2c(nc3ccccc13)CCCC2)c1cc(Cl)cc(Cl)c1` [Compound 3g], at BuChE from equine serum, the “Selectivity for BuChE” value came out at 1.577 and the IC50 was determined as 607 ± 20 nM. At AChE from electric eel, the “Selectivity for AChE” value amounted to 0.634 and the half-maximal inhibitory concentration (IC50) was 958 ± 36 nM.
As to `O=C(NCCCCCCCCCNc1c2c(nc3ccccc13)CCCC2)c1cc(Cl)cc(Cl)c1` [Compound 3h], at BuChE from equine serum, the “Selectivity for BuChE” value is 0.343 and the IC50 is 324 ± 47 nM. For the same compound, at AChE from electric eel, the “Selectivity for AChE” value is recorded as 2.914 and the IC50 is 111 ± 4 nM.
As to `CC(CN1c2ccccc2Sc2ccccc21)N(C)C.Cl` (centres unmarked) [Prometazine HCl], the pKa in data set [1] is 9.1 [52].
As to `Nc1c2c(nc3ccccc13)CCCC2` [Tacrine, reference compound], the viability at 24 h, 10 µM in “in vitro” came out at 90.3%. Further, the “hepatotoxicity (MTT; cell viability as percentage of control)” value in [2] (0.1 µM) is listed as 100.67% ± 1.03%; in data set [2] (1 µM), 99.48% ± 0.74%.
As for `CSc1ccc2c(c1)N(CCC1CCCCN1C)c1ccccc1S2.Cl` (centres unmarked) [Thiorydazine HCl], the pKa in data set [1] was 9.5 [54]. The logP in data set [3] is on record as 5.9.
On to `Cc1c(C)c2c(c(C)c1O)CCC(C)(C(=O)O)O2` (centres unmarked) [Trolox, reference compound], for which the neuroprotection was found to be 77.16% in the data set on SH-SY5Y cells [4] (compound 0.01 µM); 91.22% in the data set on SH-SY5Y cells [4] (compound 0.1 µM); 96.03% in the data set with SH-SY5Y cells [4] (compound 1 µM); 95.05% in the data set on SH-SY5Y cells [4] (compound 10 µM); 2.15% with SH-SY5Y cells [5]; 5.60% in the data set with SH-SY5Y cells [6] (0.001 µM). In addition, in the data set with SH-SY5Y cells [6] (0.01 µM), the neuroprotection came out at 4.67%.
On hyaluronidase, Heparin [positive control] showed a 50% inhibitory concentration (IC50) of 56400 ± 780 nM.
